System: HOP-62 multicell spheroids with HUVEC/MSC, viability
Experiment: Anticancer human tumor HOP-62 cell line growth inhibition [KRAS2];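 note: viability read after a week of compound exposure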;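 for viability, T/C: 100% = DMSO vehicle-treated spheroids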
Conditions: for IC50: curve of first compound; for viability, T/C: stronger effect = lower value
Summary of the method: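 KRAS-mutant tumor cells were grown as spheroids with HUVEC endothelial cells and human MSCs as stroma. Targeted agents were tested alone and with KRAS pathway inhibitors. Doses started at or near clinical Cmax, or 10 microM, descending half-log.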

[1] = second compound 0.1 µM, first compound 0.0316 µM
[2] = second compound 0.1 µM, first compound 0.1 µM
[3] = second compound 0.1 µM, first compound 0.316 µM
[4] = second compound 0.1 µM, first compound 1 µM
[5] = second compound 0.1 µM, first compound 3.16 µM
[6] = second compound 0.316 µM, first compound 0.0316 µM
[7] = second compound 0.316 µM, first compound 0.1 µM
[8] = second compound 0.316 µM, first compound 0.316 µM
[9] = second compound 0.316 µM, first compound 1 µM
[10] = second compound 0.316 µM, first compound 3.16 µM
[11] = second compound 1 µM, first compound 0.0316 µM
[12] = second compound 1 µM, first compound 0.1 µM
[13] = second compound 1 µM, first compound 0.316 µM
[14] = second compound 1 µM, first compound 1 µM
[15] = second compound 1 µM, first compound 3.16 µM
[16] = second compound 3.16 µM, first compound 0.0316 µM
[17] = second compound 3.16 µM, first compound 0.1 µM
[18] = second compound 3.16 µM, first compound 0.316 µM
[19] = second compound 3.16 µM, first compound 1 µM
[20] = second compound 3.16 µM, first compound 3.16 µM

SMILES	IC50 (second compound 0.1 µM)	IC50 (second compound 0.316 µM)	IC50 (second compound 1 µM)	IC50 (second compound 3.16 µM)	viability, T/C [1]	viability, T/C [2]	viability, T/C [3]	viability, T/C [4]	viability, T/C [5]	viability, T/C [6]	viability, T/C [7]	viability, T/C [8]	viability, T/C [9]	viability, T/C [10]	viability, T/C [11]	viability, T/C [12]	viability, T/C [13]	viability, T/C [14]	viability, T/C [15]	viability, T/C [16]	further results
CC1COCCN1c1cc(-c2ccnn2C)c2ccnc(-c3ccn[nH]3)c2n1 (stereo not given) + CC1OCC2(CCN(c3cnc(Sc4ccnc(N)c4Cl)c(N)n3)CC2)C1N	39.8 nM	35.8 nM	21.8 nM	14.6 nM	56.7%	23%	12.7%	11.5%	13.7%	53.2%	23.8%	14%	11.9%	11.9%	37%	20.2%	13.4%	10.1%	8.68%	30.6%	IC50 (second compound 10 µM): < 10 nM; viability, T/C (second compound 0.1 µM, first compound 0.01 µM): 94.7%; viability, T/C (second compound 0.316 µM, first compound 0.01 µM): 87.3%; viability, T/C (second compound 1 µM, first compound 0.01 µM): 76.6%; viability, T/C (second compound 3.16 µM, first compound 0.01 µM): 59.4%; viability, T/C [17]: 18.1%; viability, T/C [18]: 11.7%; viability, T/C [19]: 9.08%; viability, T/C [20]: 9.24%; viability, T/C (second compound 10 µM, first compound 0.01 µM): 46.9%; viability, T/C (second compound 10 µM, first compound 0.0316 µM): 26.4%; viability, T/C (second compound 10 µM, first compound 0.1 µM): 16.8%; viability, T/C (second compound 10 µM, first compound 0.316 µM): 13.6%; viability, T/C (second compound 10 µM, first compound 1 µM): 11.2%; viability, T/C (second compound 10 µM, first compound 3.16 µM): 9.36%
CCNC(=O)CC1N=C(c2ccc(Cl)cc2)c2cc(OC)ccc2-n2c(C)nnc21 (stereo not given) + C=CC(=O)N1CCN(c2nc(OCC3CCCN3C)nc3c2CCN(c2cccc4cccc(C)c24)C3)CC1CC#N	37.4 nM	437 nM	< 31.6 nM	< 31.6 nM	51%	43.6%	25.1%	22.7%	18.2%	95%	95.4%	53.5%	45.1%	41.5%	33.2%	24.5%	20.2%	19.2%	16.4%	0.58%	IC50 (second compound 0.0316 µM): 168 nM; viability, T/C (second compound 0.0316 µM, first compound 0.0316 µM): 82.8%; viability, T/C (second compound 0.0316 µM, first compound 0.1 µM): 62.3%; viability, T/C (second compound 0.0316 µM, first compound 0.316 µM): 34.6%; viability, T/C (second compound 0.0316 µM, first compound 1 µM): 33.2%; viability, T/C (second compound 0.0316 µM, first compound 3.16 µM): 27.2%; viability, T/C (second compound 0.0316 µM, first compound 10 µM): 29.3%; viability, T/C (second compound 0.1 µM, first compound 10 µM): 20.6%; viability, T/C (second compound 0.316 µM, first compound 10 µM): 36.8%; viability, T/C (second compound 1 µM, first compound 10 µM): 16.1%; viability, T/C [17]: 0.37%; viability, T/C [18]: 0.12%; viability, T/C [19]: 0.12%; viability, T/C [20]: 0.39%; viability, T/C (second compound 3.16 µM, first compound 10 µM): 0.19%

From PubChem BioAssay AID1963858 (Molecular Pharmacology Branch, DTP, NCI, 2024)
